{"source": "ChEMBL document CHEMBL5634072", "about": "“The recent advance of Interleukin-1 receptor associated kinase 4 inhibitors for the treatment of inflammation and related diseases” (Eur J Med Chem, 2023)", "key": {"[1]": {"biological_target": "Protein cereblon/Interleukin-1 receptor-associated kinase 4 (Homo sapiens, UniProt Q96SW2+Q9NWZ3)", "sequence (Q96SW2 whole entry, one chain of several)": "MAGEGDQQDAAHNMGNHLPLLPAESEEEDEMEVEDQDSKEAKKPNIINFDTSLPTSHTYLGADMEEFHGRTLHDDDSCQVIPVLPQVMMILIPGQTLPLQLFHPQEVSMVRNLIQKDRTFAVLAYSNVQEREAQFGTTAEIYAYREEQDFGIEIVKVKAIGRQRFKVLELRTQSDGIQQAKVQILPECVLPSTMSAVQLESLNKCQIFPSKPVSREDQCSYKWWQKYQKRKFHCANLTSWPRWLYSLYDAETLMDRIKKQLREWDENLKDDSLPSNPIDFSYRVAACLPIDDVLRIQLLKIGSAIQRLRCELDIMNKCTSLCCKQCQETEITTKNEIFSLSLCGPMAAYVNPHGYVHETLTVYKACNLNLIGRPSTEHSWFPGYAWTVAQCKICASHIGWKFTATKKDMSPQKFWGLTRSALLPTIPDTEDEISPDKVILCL", "assay": "Binding affinity to CRBN/IRAK4 in human PBMC cells assessed as inhibition of LPS-stimulated IL-6 production incubated for 24 hrs by MSD analysis", "format": "cell-based"}, "[2]": {"biological_target": "Cyclic GMP-AMP synthase (Homo sapiens, UniProt Q8N884)", "sequence (Q8N884 whole entry)": "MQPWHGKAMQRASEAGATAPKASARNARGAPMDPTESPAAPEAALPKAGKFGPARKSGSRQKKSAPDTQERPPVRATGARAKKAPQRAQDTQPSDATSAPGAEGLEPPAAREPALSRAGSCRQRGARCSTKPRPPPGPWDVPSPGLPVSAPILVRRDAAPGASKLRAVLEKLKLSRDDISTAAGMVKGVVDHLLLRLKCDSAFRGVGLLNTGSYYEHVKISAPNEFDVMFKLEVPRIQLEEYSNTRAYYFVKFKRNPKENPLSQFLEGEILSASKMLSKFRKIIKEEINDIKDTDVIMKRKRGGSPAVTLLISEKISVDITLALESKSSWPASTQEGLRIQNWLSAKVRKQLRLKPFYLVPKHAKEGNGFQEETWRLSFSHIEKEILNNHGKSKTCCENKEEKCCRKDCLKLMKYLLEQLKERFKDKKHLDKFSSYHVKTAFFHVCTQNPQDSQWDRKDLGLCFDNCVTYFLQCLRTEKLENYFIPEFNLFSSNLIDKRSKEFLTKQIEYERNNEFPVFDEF", "assay": "Inhibition of cyclic GMP-AMP synthase (unknown origin)"}, "[3]": {"biological_target": "Interleukin-1 receptor-associated kinase 1 (Homo sapiens, UniProt P51617)", "sequence (P51617 whole entry)": "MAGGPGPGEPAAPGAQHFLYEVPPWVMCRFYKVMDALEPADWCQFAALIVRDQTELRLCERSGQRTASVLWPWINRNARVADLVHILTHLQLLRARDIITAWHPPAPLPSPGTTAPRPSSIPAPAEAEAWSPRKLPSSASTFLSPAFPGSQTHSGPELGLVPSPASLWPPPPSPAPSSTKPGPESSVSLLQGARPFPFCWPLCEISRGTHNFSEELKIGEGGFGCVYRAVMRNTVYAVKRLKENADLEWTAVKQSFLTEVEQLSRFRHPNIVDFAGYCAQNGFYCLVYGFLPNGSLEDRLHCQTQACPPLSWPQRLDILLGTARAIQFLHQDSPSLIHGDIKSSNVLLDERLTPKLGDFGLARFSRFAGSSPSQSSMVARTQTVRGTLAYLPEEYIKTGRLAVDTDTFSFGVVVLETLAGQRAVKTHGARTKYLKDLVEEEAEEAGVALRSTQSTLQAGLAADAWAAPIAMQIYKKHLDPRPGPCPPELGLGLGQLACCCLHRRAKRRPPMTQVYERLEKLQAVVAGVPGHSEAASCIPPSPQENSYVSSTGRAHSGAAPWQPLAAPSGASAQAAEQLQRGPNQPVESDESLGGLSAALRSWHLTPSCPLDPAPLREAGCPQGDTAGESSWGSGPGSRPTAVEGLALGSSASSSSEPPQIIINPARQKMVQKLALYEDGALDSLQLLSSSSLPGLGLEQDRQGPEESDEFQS", "assay": "Inhibition of IRAK1 (unknown origin) by Ambit kinase assay"}, "[4]": {"biological_target": "T1, Protein cereblon/Interleukin-1 receptor-associated kinase 4 (Homo sapiens) (UniProt Q9NWZ3+Q96SW2)", "T1 sequence (Q96SW2 whole entry, looked up, one chain of several)": "as the sequence (Q96SW2 whole entry, one chain of several) above", "assay": "PROTAC activity at CRBN/IRAK4 in human PBMC cells assessed as induction of degradation at 0.01 uM measured after 24 hrs by Immuno-blotting analysis relative to control", "format": "cell-based"}, "[5]": {"biological_target": "T1, Protein cereblon/Interleukin-1 receptor-associated kinase 4 (Homo sapiens)", "assay": "PROTAC activity at CRBN/IRAK4 in human PBMC cells assessed as induction of degradation at 0.1 uM measured after 24 hrs by Immuno-blotting analysis relative to control", "format": "cell-based"}, "[6]": {"biological_target": "T1, Protein cereblon/Interleukin-1 receptor-associated kinase 4 (Homo sapiens)", "assay": "PROTAC activity at CRBN/IRAK4 in human PBMC cells assessed as induction of degradation at 1 uM measured after 24 hrs by Immuno-blotting analysis relative to control", "format": "cell-based"}, "[7]": {"biological_target": "T2, Interleukin-1 receptor-associated kinase 4 (Homo sapiens, UniProt Q9NWZ3)", "T2 sequence (Q9NWZ3 whole entry)": "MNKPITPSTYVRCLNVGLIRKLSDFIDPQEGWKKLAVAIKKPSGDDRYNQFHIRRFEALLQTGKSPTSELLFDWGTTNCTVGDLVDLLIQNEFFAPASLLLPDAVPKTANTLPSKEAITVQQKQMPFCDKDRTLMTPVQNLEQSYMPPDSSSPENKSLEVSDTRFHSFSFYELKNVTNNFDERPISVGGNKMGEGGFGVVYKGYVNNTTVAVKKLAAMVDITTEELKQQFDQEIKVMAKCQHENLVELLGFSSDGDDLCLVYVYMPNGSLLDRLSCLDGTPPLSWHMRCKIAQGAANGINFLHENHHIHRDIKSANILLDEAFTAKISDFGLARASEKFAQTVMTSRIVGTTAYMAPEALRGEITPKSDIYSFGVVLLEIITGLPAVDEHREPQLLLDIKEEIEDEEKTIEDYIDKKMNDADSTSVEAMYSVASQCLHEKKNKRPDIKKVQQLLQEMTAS", "assay": "Inhibition of IRAK4 (unknown origin)"}, "[8]": {"biological_target": "T2, Interleukin-1 receptor-associated kinase 4", "assay": "Inhibition of IRAK4 (unknown origin) by discoverX kinome scan assay"}, "[9]": {"biological_target": "T2, Interleukin-1 receptor-associated kinase 4", "assay": "Inhibition of IRAK4 (unknown origin) by Ambit kinase assay"}}, "data": [{"smiles": "O=C1Nc2nc3ccccc3n2Cc2cc(ccn2)-c2ccc(=O)n(n2)Cc2cccc1c2", "values": [{"measurement": "IC50", "setting": "[1]", "value": "< 100", "unit": "nM"}]}, {"smiles": "Cc1ccn2c(C(=O)C(=O)c3ccccc3)c(-c3ccccc3)nc2c1", "values": [{"measurement": "IC50", "setting": "[2]", "value": 2.1, "unit": "nM"}]}, {"smiles": "Cn1cc2c(n1)C(=O)NCCn1cc(cn1)-c1ccc(=O)n(n1)Cc1cccc(c1)C(=O)N2", "values": [{"measurement": "IC50", "setting": "[1]", "value": "< 100", "unit": "nM"}]}, {"smiles": "CN(C)[C@H]1CC[C@H](Oc2ncnc3sc4c(c23)[C@@H](CCC#N)CC4)CC1", "values": [{"measurement": "IC50", "setting": "[3]", "value": "< 5000", "unit": "nM"}]}, {"smiles": "O=C1CCC(N2C(=O)c3cccc(NCc4cn(CCCNC(=O)c5ccc(-n6cc(NC(=O)c7coc(-c8ccnc(NCC9CC9)c8)n7)c(C(F)(F)F)n6)cc5)cn4)c3C2=O)C(=O)N1", "note": "(centres undefined)", "values": [{"measurement": "Activity", "setting": "[4]", "value": "< 20", "unit": "%"}, {"measurement": "Activity", "setting": "[5]", "value": "> 20", "unit": "%"}, {"measurement": "Activity", "setting": "[6]", "value": "> 50", "unit": "%"}]}, {"smiles": "CC(C)CCNC(=O)c1ccc2c(c1)nc(Nc1n[nH]c3ccc(-c4ccccc4OC(F)(F)F)cc13)n2C1CCC(O)CC1", "note": "(centres undefined)", "values": [{"measurement": "IC50", "setting": "[7]", "value": "< 10", "unit": "nM"}]}, {"smiles": "O=C1Nc2cn(C3CCOCC3)nc2C(=O)NCCOCCCc2cc(ccn2)-c2nc1cs2", "values": [{"measurement": "IC50", "setting": "[8]", "value": 1, "unit": "nM"}]}, {"smiles": "O=C(Nc1ccc(CN2CCNCC2)c(C(F)(F)F)c1)c1cccc(-c2ccc3nc(NC(=O)C4CC4)sc3n2)c1", "values": [{"measurement": "IC50", "setting": "[7]", "value": 165, "unit": "nM"}]}, {"smiles": "Cn1cc2c(n1)C(=O)NCC1CN(CCO1)C(=O)OCCn1cc(cn1)-c1cccc(n1)C(=O)N2", "note": "(centres undefined)", "values": [{"measurement": "IC50", "setting": "[1]", "value": 100, "unit": "nM"}]}, {"smiles": "Cc1cc(-c2nc(C(=O)Nc3cc4cn(CCC(C)(C)O)nc4cc3C(C)(C)O)co2)ccn1", "values": [{"measurement": "IC50", "setting": "[9]", "value": 0.55, "unit": "nM"}]}, {"smiles": "CCO[C@H]1CC[C@@H](n2cc(NC(=O)c3csc(-c4cn[nH]c4)n3)c(-c3nc(F)ccc3F)n2)CC1", "values": [{"measurement": "EC50", "setting": "[7]", "value": 195, "unit": "nM"}]}, {"smiles": "CC(C)(O)CCn1cc2cc(NC(=O)c3cccc(C(F)(F)F)n3)c(C3COC3)cc2n1", "values": [{"measurement": "IC50", "setting": "[9]", "value": 1.6, "unit": "nM"}]}]}
